Source: patent US12103952B2, “Methods for expressing proteins in axons” (Cornell University, priority 2010, dated 2024)

Columns and labels:
[1] = system: DRG axons; assay: IRES-driven myr-dEGFP Sindbis reporter in compartmented cultures with translation inhibitors; assay type: cell-based, rat; conditions: added for 48 hrs to the axonal compartment
Source text: FIGS. 1A-O are data showing that the compartmentalization of DRGs enables axon-specific manipulations and quantitative measurement using fluorescent probes. (A) Immunofluorescence analysis of 3 DIV DRG cultures+/−5-FdU. […] Scale bar, 50 μm. […] Scale bar, 50 μm. (C) Immunofluorescence analysis of compartmented cultures (montage micrographs). Retrogradely labeled (WGA-Alexa555, red) DRG axons fasciculate and grow under the 1 mm divider into the axon compartment. Axons defasciculate as they enter the axon compartment. Cell bodies (DAPI, blue) are restricted to the cell body compartment. Only WGA-Alexa555 labeled cell bodies are included in data sets, as they comprise the population of neurons extending axons across the divider. (D) Dissociated DRG neurons (5 DIV) in compartmented cultures were treated with NGF in either or both compartments. […] Numbers on bars represent n cells per condition. (E, F) DRG axons in compartmented cultures were infected with a Sindbis virus encoding myr-dEGFP under the control of an IRES by applying the virus to both cell body and axonal compartments. […] All compartments were maintained in identical NGF-containing media throughout the course of the experiment. […] Incomplete abolishment of FISH signals, relative to siRNA-treated axons, reflects residual alternatively-spliced CREBβ transcripts in these hypomorphic animals (Blendy et al., EMBO Journal 15, 1098-1106 (1996)). Additionally, axonal mRNAs are trafficked as mRNA-ribosome complexes, and impaired CREBβ mRNA-ribosome interactions due to the poor Kozak site (Blendy et al., EMBO Journal 15, 1098-1106 (1996)) in this transcript may lead to inefficient trafficking. Scale bar, 10 μm. (H) Quantification of data in (G). *p<0.0001. Numbers on bars represent n axons per condition. (I) Similar to the experiment in FIG. 4A, except equivalent numbers of cell bodies and axon terminals were used for Western blotting. DRG explants were cultured in Boyden chambers, and the upper compartment was incubated in 0 ng/ml NGF. The lower compartment was incubated in either 0 ng/ml NGF or 100 ng/ml NGF for 3 hours. Axon lysates (˜10^4 cells) were prepared from the underside of the membrane and analysed by Western blot. As in FIG. 4A, only CREB was detected in axons, and CREB localization in […] axons was dependent on NGF in the culture media. (J) DRG cultures were transfected with CREB siRNA and CREB levels were detected using a CREB antibody. […] Scale bar, 20 μm. (K) Quantification of data in (J). *p<0.001. Numbers on bars represent n axons per condition. (L) E15 DRG neuronal lysate (10 μg) was subjected to immunoblotting with the CST-9192 CREB antibody. (M) CREB was detected by immunofluorescence using CREB antibody sc-186 (see I, FIG. 4A, and Table S4). Scale bar 10 μm. […] (0) Quantification of data in (M). *p<0.0001. […]

[2] = system: CRE-dependent transcription; assay: CRE-luciferase adenovirus reporter in DRG neurons; assay type: cell-based, rat

Compound	myr-EGFP fluorescence in the axonal compartment [1]	myr-EGFP levels in the cell body compartment [1]	luciferase levels ([2]; axonal application of NGF)	luciferase immunofluorescence ([2]; bath application of NGF, 0-100 ng/ml, 24 hours)
COc1ccc(C[C@H]2NC[C@H](O)[C@H]2OC(C)=O)cc1 [anisomycin]	loss of myr-EGFP fluorescence	no significant effect		
C[C@@H]1C[C@@H]([C@H](O)CC2CC(=O)NC(=O)C2)C(=O)[C@@H](C)C1 [cycloheximide]	loss of myr-EGFP fluorescence	no significant effect		
NGF: nerve growth factor			increased luciferase levels	dose-dependent increase in luciferase immunofluorescence
